One may read the IC50 as the concentration needed to halve the response being measured. Lower therefore signals greater potency in that assay. One may read the CC50 as the concentration at which the toxic effect on the cells reaches its halfway point. A higher CC50 goes with better tolerance by the cells. By melting point is commonly meant the temperature, or range, at which the solid turns liquid.

A value given as a limit tells only on which side of the number the result lay.

Here are results for six compounds from patent US6440986B2, “HIV Inhibiting pyrimidine derivatives” (Janssen Pharmaceutica, N.V., priority 1998, dated 2002).

The test system of one data set is HIV-1. The data set can be described thus: in vitro anti-HIV assay: inhibition of the HIV-induced cytopathic effect in MT-4 cells (MTT). In kind it is cell-based. To be noted: Human immunodeficiency virus 1, MT4, dose achieving 50% protection of HIV-infected MT-4 cells against cytopathic effect, OD 540 nm. Here is the method: A rapid, sensitive and automated assay procedure was used for the in vitro evaluation of anti-HIV agents. An […] T4-cell line, MT-4, which was previously shown (Koyanagi et al., Int. J. Cancer, 36, 445-451, 1985) to be highly susceptible to and permissive for HIV infection, served as the target cell line. Inhibition of the HIV-induced cytopathic effect was used as the end point. The viability of both HIV- and mock-infected cells was assessed spectrophotometrically via the in situ reduction of 3-(4,5-dimethylthiazol-2-yl)-2,5-diphenyltetrazolium bromide (MTT). […] The percent protection achieved by the compound in HIV-infected cells was calculated by the following formula: [formula]
(§1) whereby (ODT)HIV is the optical density measured with a given concentration of the test compound in HIV-infected cells; (ODC)HIV is the optical density measured for the control untreated HIV-infected cells: (ODC)MOCK is the optical density measured for the control untreated mock-infected cells; all optical density values were determined at 540 nm. […] The ratio of CC50 to IC50 was defined as the selectivity index (SI).
A general note: Cytopathic effects are the visible damage that an infection or toxin causes in cultured cells.

Data set [1] can be described thus: cytotoxicity in mock-infected MT-4 cells (MTT). The data set is classed as cell-based. To be noted: human, mock-infected MT-4 cells, 50% cytotoxic concentration; reduces absorbance of mock-infected MT-4 control by 50%; MTT. The protocol:
A rapid, sensitive and automated assay procedure was used for the in vitro evaluation of anti-HIV agents. […] Inhibition of the HIV-induced cytopathic effect was used as the end point. The viability of both HIV- and mock-infected cells was assessed spectrophotometrically via the in situ reduction of 3-(4,5-dimethylthiazol-2-yl)-2,5-diphenyltetrazolium bromide (MTT). […] The percent protection achieved by the compound in HIV-infected cells was calculated by the following formula: [formula]
as §1

The compound `N#Cc1ccc(Nc2nc(Cc3c(Cl)cccc3Cl)cc(NC(=O)CN3CCCCC3)n2)cc1` [Compound 25, N-[6-[(2,6-dichloro-phenyl)methyl]-2-[(4-cyano-phenyl)amino]-4-pyrimidinyl]-1-piperidine-acetamide] had a melting point of 175 to 180 °C. In the data set with HIV-1, this compound showed an IC50 of 79 nM. In addition, the half-maximal cytotoxic concentration (CC50) in data set [1] was > 100000 nM.
For `CN(C)C=Nc1cc(Cc2c(Cl)cccc2Cl)nc(Nc2ccc(C#N)cc2)n1` [Compound 26, N′-[2-[(4-cyanophenyl)amino]-6-[(2,6-dichlorophenyl)methyl]-4-pyrimidinyl]-N,N-dimethylmethanimidamide] the same measures were 175 to 180 °C, 11 nM and 33500 nM.
In turn, `Cc1cc(Br)c(Nc2ccnc(Nc3ccc(C#N)cc3)n2)c(Br)c1` [Compound 61, 4-[[4-[(2,6-dibromo-4-methylphenyl)amino]-2-pyrimidinyl]amino]benzonitrile] had an IC50 in the data set on HIV-1 of 0.7 nM. This compound returned a CC50 in data set [1] of 100 nM.
`CCCCCCCC(=O)Nc1cc(Cc2c(Cl)cccc2Cl)nc(Nc2ccc(C#N)cc2)n1` [Compound 17, N-[6-[(2,6-dichloro-phenyl)methyl]-2-[(4-cyano-phenyl)amino]-4-pyrimidinyl]octanamide] gave a melting point of 135 to 137 °C. The compound also gave a 50% inhibitory concentration (IC50) in the data set on HIV-1 of 167 nM. In data set [1], this compound came in with a CC50 of 9100 nM.
For `N#Cc1ccc(Nc2nc(Cc3c(Cl)cccc3Cl)cc(NCCN3CCCC3)n2)cc1` [Compound 13, 4-[[4-[(2,6-dichloro-phenyl)methyl]-6-[[2-(1-pyrrolidinyl)ethyl]amino]-2-pyrimidinyl]amino]benzonitrile] the same measures were 80 to 85 °C, 5 nM and 7800 nM.
Turning to `N#Cc1ccc(Nc2nccc(Nc3c(Cl)cc(C(F)(F)F)cc3Cl)n2)cc1` [Compound 66, 4-[[4-[[2,6-dichloro-4-(trifluoromethyl)-phenyl]amino]-2-pyrimidinyl]amino]benzonitrile], the IC50 in the data set on HIV-1 came to 8.5 nM. Further, in data set [1], the cytotoxic concentration (CC50) turned out to be 19900 nM.
